Data on 4 compounds can be found in US20030113421A1, “Synergistic combinations of natural of compounds that control decay of fruits and vegetables and reduce contamination by foodborne human pathogens” (priority 2001, published 2003).

In one assay the test system is E. coli. Format: cell-based, Escherichia coli. The following applies: for concentration at which inhibitory to E. coli growth: essential oil tested individually. The protocol:
(§1) E. coli (Strain #139 HB101/p5G6) was grown at 24° C. for 48 hr in shake-flask cultures of Lennox broth (LB). Bacterial cells were pelleted by centrifugation in a Sorvall RC-58 centrifuge (Dupont Instruments, Wilmington, Del.) at 3000 g for 20 min, resuspended in sterile distilled water, and centrifuged again. The resulting pellets were dispersed in sterile distilled water and the cell concentration was adjusted to 10^6 CFU per ml using a standard optical density (OD) curve with the OD values of 0.1 and 1 representing viable cell counts of 1×10^6 and 1×10^9, respectively. E. coli 015:H7 and L. monocytogenes isolates were grown overnight at 37° C. in trypticase soy broth and brain heart infusion, respectively. The concentration of cells was adjusted to 10^6 CFU per ml. Botrytis cinerea and Penicillium expansum were isolated from infected fruit and maintained on potato dextrose agar (PDA). A spore suspension was obtained by flooding 2 wk cultures of B. cinerea with sterile distilled water containing 0.1% (v/v) TWEEN 80. Spore counts were determined with a hemacytometer and spore concentrations were adjusted with sterile distilled water to obtain 10^5 spores per ml.
(§2) The individual effects of various essential oils and chitosan salts, and the combined effects of essential oils and chitosan salts on the growth of the indicator organism E. coli and on the postharvest pathogen B. cinerea were determined. To measure the effects of the various treatments on spore germination of B. cinerea and growth of the E. coli, the essential oils: bay, cinnamon, savory, thyme red, allspice, birch, cloves, carvacrol, and hinokitiol (Aroma Vera, Cuber City, Calif.) and MMW chitosan in acetic, propionic, and sorbic acids were combined together with B. cinerea or E. coli to yield final concentrations of 0.1 to 0.025% for the essential oils and 0.1 to 0.0016% for the chitosan salts. For the assays, 500 spores of B. cinerea were added to each treatment in microtiter dishes or three ml of a 2X concentration of E. coli (i.e., 2×10^6 CFU/ml) were combined with three ml of a 2X concentration of treatment in a 15 ml centrifuge tube, agitated overnight, and plated after 24 hr onto LB agar plates (100 μl suspension/plate). The surfactant (Triton×100) was present at a final concentration of 0.04%. […] Four replicate tubes of each treatment were used; each experiment was repeated twice. The viable bacterial cell number was counted by surface plating serially diluted samples in triplicate on LB agar medium. Plates were incubated at 24° C. and colonies were counted at 48 hr. Botrytis spore germination was determined microscopically.

Another assay deals with B. cinerea. The experiment in a line: Effect of concentration and of synergistic combinations of essential oils and chitosan salts on spore germination of B. cinerea. The class given is cell-based, Botrytis cinerea. The protocol: as §1, §2
The next assay has as its system E. coli on apple disks. Further details: species or system Escherichia coli. The protocol: as §1
Tree-ripe apples (Malus domestica Borkh) cultivar ‘Red delicious’ were hand-picked at harvest maturity at the Appalachian Fruit Research Station, Kearneysville, W. Va. Fruit were sorted to remove any with apparent injuries or infections and stored at 4° C. under refrigeration before being used in the biocontrol tests. Apple disks (10 mm) were excised from selected Red delicious apples using a cork borer. Apple disks were treated by immersion for 90 min in a 0.1% solution of various essential oils and/or their combinations with 0.1 % chitosan salts. Disks were either treated with the different combinations of natural compounds and then inoculated with E. coli by soaking apple disks in a solution of E. coli for 90 min or inoculated with E. coli and incubated at 24° C. for 24 hr. From each treatment four disks were selected randomly, individually homogenized in 5 ml of sterile water, vortexed, and dilution plated in triplicate on a LB agar medium. Plates were incubated at 24° C. and colonies were counted after 48 hr.

Where [1] appears, read: essential oil alone 0.025% v/v, CFU in 100 μl sample.
[2] abbreviates: essential oil alone 0.05% v/v, CFU in 100 μl sample.
Setting [3] is: essential oil alone 0.075% v/v, CFU in 100 μl sample.
Where [4] appears, read: essential oil alone 0.1% v/v, CFU in 100 μl sample.

Where two headings read alike, the source gives them in different places.

In the case of `CC(C)c1cccc(=O)c(O)c1` [Hinokitiol, hinokitiol], the “Growth of E. coli (CFU), combination” value amounted to 60 CFU in the assay with E. coli; 102 CFU in the assay on E. coli (essential oil 0.075% + Chitosan acetate 0.0032%, CFU in 100 μl sample); 56 CFU in the assay on E. coli (essential oil 0.075% + Chitosan propionate 0.0032%, CFU in 100 μl sample). For the same compound, the “Growth of E. coli (CFU), synergy table” value with E. coli (essential oil 0.075% + Water (no chitosan salt), CFU in 100 μl sample) is reported as 1108 CFU. Moreover, the “Growth of E. coli (CFU)” value with E. coli (setting [1]) is “TNTC”; in the assay on E. coli (setting [2]) it was “TNTC”; in the assay with E. coli (setting [3]), 812 CFU; with E. coli (setting [4]), 0 CFU. For the same compound, the “concentration at which inhibitory to E. coli growth” value in the assay with E. coli worked out at 0.075%. Besides, the “Percent Inhibition of Spore Germination, combination” value in the assay on B. cinerea, with B. cinerea (essential oil 0.067% + Chitosan acetate 0.02%) and in the assay with B. cinerea (essential oil 0.067% + Chitosan propionate 0.02%) was 100% in each case. For the same compound, the “Percent Inhibition of Spore Germination, synergy table” value with B. cinerea (essential oil 0.067% + Water (no chitosan salt)) is 0%.

Turning to `CC=CC=CC(=O)O` [Sorbate], in the assay with E. coli on apple disks, the “Eradicant Activity E. coli (CFU)” value is “TNTC” and the “Protectant Activity E. coli (CFU)” value is “TNTC”.

As to `CCC(=O)O` [Propionate], in the assay on E. coli on apple disks (apple disks immersed in 10^6 CFU per ml E. coli for 90 min, drained, then treated (0.1% v/v)), the “Eradicant Activity E. coli (CFU)” value is recorded as “TNTC”. Further, the “Protectant Activity E. coli (CFU)” value in the assay on E. coli on apple disks (apple disks treated (0.1% v/v), thereafter immersed in 10^6 CFU per ml E. coli for 90 min, CFU in 100 ml sample) was “TNTC”.

As to `Cc1ccc(C(C)C)cc1O` [Carvacrol, carvacrol], the “Growth of E. coli (CFU), synergy table” value with E. coli is recorded as 1430 CFU. Moreover, the “Growth of E. coli (CFU)” value was “TNTC” in the assay with E. coli (setting [1]), 0 CFU in the assay with E. coli (setting [2]), 0 CFU in the assay on E. coli (setting [3]) and 0 CFU with E. coli (setting [4]). Also, in the assay on E. coli, the “concentration at which inhibitory to E. coli growth” value turned out to be 0.05%.
